Data taken from patent US7691985B2, “Skeletal-targeted radiation to treat bone-associated pathologies” (priority 1999, dated 2010).

Tests used:
[1] = Pharmacokinetics and patient specific dosimetry of ^166Ho-DOTMP in patients with breast cancer metastatic to bone (Example 6); type: in vivo, human
Experimental: Eight patients with breast cancer metastatic only to bone initially received a 30 mCi dose of ^166Ho-DOTMP for diagnostic purposes. Pharmacokinetics were assessed via whole body counting, gamma camera imaging, and urine and blood assays for the first 48 hours following injection. Patients were followed with autologous stem cell transplantation for rescue from hematologic toxicity.
Therapy doses were calculated based upon prescribed dose to the red bone marrow using the Medical Internal Radiation Dose (MIRD) technique and percentage localization in the skeleton. Appropriate S-values were provided by Oak Ridge National Laboratory. The desired target dose was 22 Gy to the red marrow calculated by the above technique for each individual. The average red marrow dose was calculated to be 1.97±0.92 cGy/mCi (range: 0.98 cGy/mCi to 3.19 cGy/mCi). Three patients proceeded to therapy, two were disqualified due to low uptake in the skeleton (≦30%; revised qualification: 15%), and three were disqualified for other reasons unrelated to the ^166Ho-DOTMP treatment.

[2] = Stability of ^166Ho-DOTMP with and without stabilizer: radiochemical purity by ITLC, CEC, HPLC (Example 15); type: physicochemical; details: ascorbic acid about 35-75 mg/mL, ambient conditions, unfrozen
Experimental: Samples of ^166Ho-DOTMP were prepared according to the procedure in Example 1 using ascorbic acid, 55 mg/mL, as the stabilizer. Identical samples were prepared without ascorbic acid. The solutions were analyzed for radiochemical purity after 1 hour, 6 hours, 10 hours, 24 hours, and 48 hours, using Instant Thin Layer Chromatography (ILTC), Cation Exchange Chromatography (CEC) and High Performance Liquid Chromatography (HPLC).

[3] = Phase II multicenter dosimetry study of ^166Ho-DOTMP: safety, biodistribution, pharmacokinetics (Example 9); type: in vivo, human
Experimental: A 12-patient, Phase II multicenter study was performed to further evaluate the safety, biodistribution and pharmacokinetics of ^166Ho-DOTMP. Each patient was to receive two 30 mCi tracer doses of ^166Ho-DOTMP followed, in eligible patients (those with adequate skeletal uptake parameters), by a therapy dose calculated to deliver 25 Gy to the red marrow. All patients in this study received CBI.

multiple myeloma = experiment: Single patient: 40 Gy ^166Ho-DOTMP, melphalan 140 mg/m^2 (Example 12); type: in vivo, human
Experimental: The patient, a person with an original diagnosis of multiple myeloma, was administered a therapeutic dose of ^166Ho-DOTMP of 3875 mCi which was calculated to deliver 40 Gy to the marrow. Post ^166Ho-DOTMP, the patient received a dose of 140 mg/m^2 of melphalan (I.V.). The patients stem cells were reinfused three days after the melphalan and were followed by G-CSF for ten days.

[4] = 3875 mCi (40 Gy to marrow), melphalan 140 mg/m^2, one patient

## O=P([O-])(O)CN1CCN(CP(=O)(O)O)CCN(CP(=O)([O-])O)CCN(CP(=O)(O)O)CC1.[166Ho] [^166Ho-DOTMP]
[1]; 30 mCi diagnostic dose
  effective skeletal half-life: 19.9 ± 2.5 h
[1]; 30 mCi diagnostic dose, eight patients
  average percentage uptake in the skeleton: 28±12%
[1]; 6 hours post injection
  material present in the urine: Approximately 50%
[1]; 24 hours post injection
  injected dose remaining in whole blood: a small percentage
[1]; biphasic clearance
  whole blood clearance early T1/2: 3 ± 2.4 min
  whole blood clearance late T1/2: 11 ± 4 h
[1]; calculated by MIRD technique
  average red marrow dose: 1.97±0.92 cGy/mCi
[1]; therapy, target 22 Gy to red marrow, three patients
  toxicity: Other than severe hematological suppression, no toxicity was noted
[2]
  time the solution is stable, e.g., therapeutically useful: ≥ 72 h
[3]; gamma camera counting and urine PK
  route of excretion: no route of excretion other than the urine
[3]; gamma camera images
  localization of retained activity: retained activity was localized in the skeleton
[3]; serum calcium, ECG and Holter monitoring
  hypocalcemia or associated cardiac abnormalities: no clinical observations of hypocalcemia or associated cardiac abnormalities were noted
[3]; therapy dose 25 Gy to red marrow
  acute toxicities: no unexpected acute toxicities were noted
[3]; therapy dose calculated to deliver 25 Gy to red marrow, all patients
  time to engraftment after stem cell transplant: ≤ 15 days
Multiple myeloma; [4]
  days post stem cell transplant to neutrophil engraftment (ANC >500): Nine
  days post transplant to platelet engraftment (>20,000): fourteen
Multiple myeloma; twenty-eight days post transplant, one patient
  response: complete remission
